Test results reported in US6140330A, “Thiazole derivative” (Otsuka Pharmaceutical Company, Limited, priority 1996, dated 2000).

Key:
[1] = Rat Kidney Ischemic Re-perfusion Model; format: in vivo; details: for amount of creatine in the blood / amount of urea nitrogen in the blood: in mg/dL (unit assumed)
Protocol: (4) Rat Kidney Ischemic Re-perfusion Model
The right kidney of a SD male rat was taken out, and the left kidney artery was clumped, and then, re-perfused to give a kidney ischemic re-perfusion model. The effect of the compounds of Examples 71, 89 and 100 on the kidney ischemic re-perfusion model was estimated.
The compound of Example 71 was administered intravenously to the rat at a dose of 3 mg/kg 5 minutes before the ischemic. Twenty-four hours later, the blood was collected from the tail vein, and the amounts of creatine and urea nitrogen were determined. The amount of creatine in the blood was 2.19±0.21 (mean±s.e.) in the control group; 1.4±0.11 (mean±s.e.) in the group treated with the compound of Example 71, and the amount of urea nitrogen in the blood was 78.8±5.6 (mean s.e.) in the control group, and 54.1±5.0 (mean±s.e.) in the group treated with the compound of Example 71.
The compound of Example 89 was administered intravenously to the rat at a dose of 3 mg/kg 5 minutes before the ischemic and the re-perfusion. Forty-eight hours later, the blood was collected from the tail vein, and the amounts of creatine and urea nitrogen were determined. The amount of creatine in the blood was 4.31±0.53 (mean±s.e.) in the control group; 2.34±0.46 (mean±s.e.) in the group treated with the compound of Example 89, and the amount of urea nitrogen in the blood was 155.1±15.4 (mean±s.e.) in the control group, and 99.1±16.0 (mean±s.e.) in the group treated with the compound of Example 89.
The compound of Example 100 was administered orally to the rat at a dose of 30 mg/kg one hour before the ischemic. Forty-eight hours later, the blood was collected from the tail vein, and the amounts of creatine and urea nitrogen were determined. The amount of creatine in the blood was 2.48±0.59 (mean±s.e.) in the control group; 1.53±0.20 (mean±s.e.) in the group treated with the compound of Example 100, and the amount of urea nitrogen in the blood was 91.3±20.1 (mean±s.e.) in the control group, and 63.1±10.3 (mean±s.e.) in the group treated with the compound of Example 100.

[2] = tested on: anti-DNA antibody; assay: Mouse cGVHD (chronic graft-versus-host disease model), anti-DNA antibody in blood by ELISA; format: in vivo; details: mice; for amount of anti-DNA antibody in the blood: mean±s.e.
Protocol: (3) Mouse cGVHD (chromic Graft-versus-host disease model)
Female mice (DBA/2NCrj) were subjected to an operation of cervical vertebra dislocation, and the spleen was taken out to give the spleen cells preparation. The preparation were adjusted to 37.5×10^7 cells/ml, and administered to the BDF1 female mice on the tail vein at a dose of 200 μl per a mouse. Two weeks later, the blood was collected in the absence of heparin, and anti-DNA antibody therein was determined by ELISA.
The compound of Example 182 was administered orally to the mice at a dose of 30 to 50 mg/kg once a day for two weeks, and the effect of the test compound on cGVHD was determined.
The amount of anti-DNA antibody in the blood was determined with OD405. The amounts of anti-DNA antibody were 0.348±0.111 (mean±s.e.) in the control group, 0.255±0.062 (mean±s.e.) in the group treated with the compound of Example 182 at a dose of 30 mg/kg, and 0.094±0.026 (mean±s.e.) in the group treated with the compound of Example 182 at a dose of 50 mg/kg.
Further, the compound of Example 100 was also administered orally to the mice at 30 mg/kg once a day for two weeks, and the effect of the compound on cGVHD was also determined.
The amount of anti-DNA antibody in the blood was determined with OD405. The amounts of anti-DNA antibody were 0.258±0.084 (mean±s.e.) in the control group, and 0.177±0.061 (mean±s.e.) in the group treated with the compound of Example 100 at a dose of 30 mg/kg.

[3] = biological target: protein kinase C (PKC); assay: Protein Kinase C (PKC) Inhibitory Activity; format: biochemical; details: rat brain PKC, H1 histone substrate, 10 μM [γ-32P]ATP, 30° C., 30 minutes
Protocol: (1) Protein Kinase C (PKC) Inhibitory Activity
Method for determining PKC activity:
The purification of PKC using rat's brain soluble fractions was carried out by a method of Kikkawa et al. (cf. Ushio Kikkawa, Yoshimi Takai, Ryoji Minakuchi, Sinichi Inohara and Yasutomi Nishizuka: The Journal of Biological Chemistry, vol. 257, No. 22, pp. 13341-13348 (1982)). PKC activity was determined by the transfer of radio activity from the [γ-^32 P] adenosine triphosphate (ATP) to H1 histone derived from calf thymus in the presence of 20 mM Tris-HCl buffer (pH 7.5), H1 histone derived from calf thymus (200 μg/ml), 10 μM [γ-^32P]ATP, 5 mM magnesium acetate, 8 μg/ml phosphatidyl serine, 2 μg/ml diacylglycerol and 0.3 mM Ca^2+. The test compound was dissolved in dimethylformamide, and the test compound solution was added to the assay system so that the final concentration thereof was adjusted to 0.8%. The reaction mixture was incubated at 30° C. for 30 minutes, and the reaction was quenched with 25% trichloroacetic acid. The acid-insoluble protein was collected on a nitrocellulose membrane by suction filtration. The radio activity of ^32 P was determined by scintillation counter. The PKC inhibitory activity of the test compounds was expressed by IC50, which is a concentration of the test compound to be required to reduce the PKC activity by 50%.

[4] = Mouse Collagen Arthritis; format: in vivo; details: orally once a day
Protocol: (2) Mouse Collagen Arthritis
Bovine II-type collagen (provided by Collagen Gijyutsu Kensyukai) (0.1%) was emulsified with Complete Fleund's adjuvant (CFA) (50%) (manufactured by DIFCO, Ltd.), and the emulsion thus obtained was injected intracutaneously to mice at the tail (primary sensitization). Three weeks later, bovine II-type collagen (0.1%) was injected intraperitoneally again to the mice (secondary sensitization). Three weeks later, the swelling of limbs of the mice was observed, and evaluated by four-degree as 0 to 3 each limb. The degree (0 to 3) each limb was added, and the results were used a score of the arthritis. That is, the maximum degree is 12 (degree 3×4 limb). The test compound was administered orally to the mice once a day, which started after two weeks from the primary sensitization.

[5] = Mouse Atopic Dermatitis Model (TNCB-induced increase in auricle thickness); format: in vivo; details: mice (Balb/c), once a day for two weeks
Protocol: (6) Mouse Atopic Dermatitis Model:
1% […] (TNCB), (10 μl) was applied to each side of the ear of female mice (Balb/c), once every two days for 24 days. Twenty-four days later, the mice were grouped, and the auricle thickness of the mouse was determined by using a dial thickness gage, and the increase in the thickness of auricle was calculated. The compounds of Examples 88 and 89 were dissolved in acetone in a concentration of 1%. The compound of Example 182 was dissolved in a mixture of acetone:methanol in a concentration of 0.75%. Twenty-four days after the beginning of the experiment, the solution of a test compound was applied to each side of the ear 30 minutes before and after the application of TNCB, once a day for two weeks.

[6] = Phorbol Ester (TPA)-induced Mouse Auricle Edema, Acanthosis Model; format: in vivo; details: mouse (ICR); for increase in the thickness of auricle: after 24 hours, control 215±40 μm, mean±s.e.
Protocol: (5) Phorbol Ester (TPA)-induced Mouse Auricle Edema, Acanthosis Model
A 200 μg/ml phorbol ester (TPA) (10 μl) was applied to the one side to the ear of a female mouse (ICR). Twenty-four hours later, the thickness of the auricle of the mouse was determined with using a dialthickness gage, and the increase in the thickness of auricle was calculated. A test compound was dissolved in acetone, and the solution of a test compound was applied to the both sides of the ear 30 minutes before the application of TPA.
The compound of Example 88 was applied to the ear at a dose of 20 μl of 0.3% or 1% solution. The increase in the thickness of auricle in the control group is 215±40 μm (mean±s.e.) after 24 hours, while 87±53 μm (mean±s.e.) in the group treated with the compound of Example 88 in 0.3%, and 67±23 μm (mean±s.e.) in the group treated with the compound of Example 88 in 1%.

COc1cc(C(=O)/C=C/C(=O)N2CCC(N3CCCN(C)CC3)CC2)ccc1OCC(=O)Nc1nc2ccccc2s1 [Example 100]
amounts of both of creatine and urea nitrogen compared with the control group ([1]; orally 30 mg/kg one hour before the ischemic, 48 hours later): reduced
amount of creatine in the blood ([1]; orally 30 mg/kg one hour before the ischemic, 48 hours later, control 2.48±0.59, mean±s.e.): 1.53±0.20
amount of urea nitrogen in the blood ([1]; orally 30 mg/kg one hour before the ischemic, 48 hours later, control 91.3±20.1, mean±s.e.): 63.1±10.3
anti-DNA antibody in the blood compared with the control group ([2]; orally 30 mg/kg once a day for two weeks): reduced the anti-DNA antibody in the blood
amount of anti-DNA antibody in the blood ([2]; orally 30 mg/kg once a day for two weeks, control 0.258±0.084): 0.177±0.061 OD405
IC50 [3]: 300 nM

Cc1c(OCC(=O)Nc2nc3ccccc3s2)ccc(C(=O)/C=C/C(=O)N2CCC(N3CCCN(C)CC3)CC2)c1C [Example 192]
score of arthritis in comparison with the control mice ([4]; 50 mg/kg): significantly reduced
IC50 [3]: 800 nM

COc1cc(C(=O)/C=C/C(=O)N2CCOC(CN3CCN(C)CC3)C2)ccc1OCC(=O)Nc1nc2ccccc2s1 (stereo not shown) [Example 89]
amounts of both of creatine and urea nitrogen compared with the control group ([1]; i.v. 3 mg/kg 5 minutes before the ischemic and the re-perfusion, 48 hours later): significantly reduced
amount of creatine in the blood ([1]; i.v. 3 mg/kg 5 minutes before the ischemic and the re-perfusion, 48 hours later, control 4.31±0.53, mean±s.e.): 2.34±0.46
amount of urea nitrogen in the blood ([1]; i.v. 3 mg/kg 5 minutes before the ischemic and the re-perfusion, 48 hours later, control 155.1±15.4, mean±s.e.): 99.1±16.0
IC50 [3]: 300 nM
inhibition of the increase in the auricle thickness ([5]; topical 1% in acetone): about 25%

CN1CCN(CC2CN(C(=O)/C=C/C(=O)c3ccc(OCC(=O)Nc4nc5ccccc5s4)c(F)c3)CCO2)CC1 (stereo not shown) [Example 71]
amounts of both of creatine and urea nitrogen compared with the control group ([1]; i.v. 3 mg/kg 5 minutes before the ischemic, 24 hours later): significantly reduced
amount of creatine in the blood ([1]; i.v. 3 mg/kg 5 minutes before the ischemic, 24 hours later, control 2.19±0.21, mean±s.e.): 1.4±0.11
amount of urea nitrogen in the blood ([1]; i.v. 3 mg/kg 5 minutes before the ischemic, 24 hours later, control 78.8±5.6, mean±s.e.): 54.1±5.0
IC50 [3]: 800 nM

Cc1cc(OCC(=O)Nc2nc3ccccc3s2)ccc1C(=O)/C=C/C(=O)N1CCC(N2CCCN(C)CC2)CC1 [Example 197]
score of arthritis in comparison with the control mice ([4]; 50 mg/kg): significantly reduced
IC50 [3]: 300 nM

COc1cc(OCC(=O)Nc2nc3ccccc3s2)ccc1C(=O)/C=C/C(=O)N1CCC(N2CCCN(C)CC2)CC1 [Example 182]
score of arthritis in comparison with the control mice ([4]; 30 to 50 mg/kg): significantly reduced
amount of anti-DNA antibody in the blood ([2]; orally 30 mg/kg once a day for two weeks, control 0.348±0.111): 0.255±0.062 OD405
amount of anti-DNA antibody in the blood ([2]; orally 50 mg/kg once a day for two weeks, control 0.348±0.111): 0.094±0.026 OD405
anti-DNA antibody in the blood compared with the control group ([2]; orally 30 to 50 mg/kg once a day for two weeks): reduced the anti-DNA antibody in the blood dose-dependently
IC50 [3]: 80 nM
inhibition of the increase in the auricle thickness ([5]; topical 0.75% in acetone:methanol): about 25%

O=C(COc1ccc(C(=O)/C=C/C(=O)N2CCN(O)CC2)cc1C(F)(F)F)Nc1nc2ccccc2s1 [Example 160]
score of arthritis in comparison with the control mice ([4]; 50 mg/kg): significantly reduced
IC50 [3]: 600 nM

COc1cc(C(=O)/C=C/C(=O)N2CCC(N3CCN(C)CC3)CC2)ccc1OCC(=O)Nc1nc2ccccc2s1 [Example 88]
increase in auricle thickness compared with the control group ([6]; topical 20 μl of 0.3% or 1% solution): significantly reduced
increase in the thickness of auricle ([6]; topical 20 μl of 0.3% solution): 87±53 μm
increase in the thickness of auricle ([6]; topical 20 μl of 1% solution): 67±23 μm
IC50 [3]: 100 nM
